Test [1] deals with Trypanosoma brucei brucei. Briefly: Antitrypanosomal activity against bloodstream form of Trypanosoma brucei brucei […] after 48 hrs by alamar blue assay. In kind it is functional. (In general: Alamar Blue is a resazurin reagent that responds to reducing activity.)
The test system of test [2] is Trypanosoma brucei brucei. Briefly: Resistance factor, ratio of IC50 for TbAT1-deficient bloodstream form of Trypanosoma brucei brucei to IC50 for wild-type bloodstream form of Trypanosoma brucei brucei s427. In kind it is functional.
The test system of test [3] is Trypanosoma brucei brucei. Briefly: Resistance factor, ratio of IC50 for Trypanosoma brucei brucei B48 to IC50 for wild-type bloodstream form of Trypanosoma brucei brucei s427. In kind it is functional.
Test [4] has as its system Trypanosoma brucei brucei. Briefly: Antitrypanosomal activity against TbAT1 and HAPT1-deficient Trypanosoma brucei brucei B48 after 48 hrs by alamar blue assay. In kind it is functional, organism-based.
Test [5] has as its system Trypanosoma brucei brucei. Briefly: Antitrypanosomal activity against bloodstream form of Trypanosoma brucei brucei s427 after 48 hrs by alamar blue assay. In kind it is functional, organism-based. As to conditions: s427, 48 h; call rule not given here.
The subject of test [6] is Trypanosoma brucei brucei. Description: Antitrypanosomal activity against TbAT1-deficient Trypanosoma brucei brucei after 48 hrs by alamar blue assay. In kind it is functional, organism-based.
Where [7] appears, read: Trypanosoma brucei, B48, 48 h, read-out: IC50.
Setting [8] is: Trypanosoma brucei, 48 h, read-out: IC50.

Each structure is given as a SMILES string. Converted amounts (≈) assume the structure as drawn.

One may read the MIC as the lowest concentration found to suppress growth. A higher MIC goes with a less susceptible organism. Molecule `CC(C)[C@@H]1N=C(C2CCCCC2)c2cc(NC(=N)N)ccc2N(Cc2ccc(NC(=N)N)cc2)C1=O` displayed an MIC in test [1] of 0.78 µM (≈ 0.381 µg/mL). What is called IC50 is the concentration that inhibits the measured activity by half. Turning to `O=C1Nc2ccccc2C(c2ccccc2)=N[C@H]1Cc1ccccc1`, the figures for the “Ratio IC50” value in test [2] and in test [3] were 0.57 and 0.67, respectively. Further, the MIC in test [1] amounted to 6.25 µM (≈ 2.04 µg/mL). Moreover, the IC50 in test [4] (setting [7]) amounted to 9230 nM; in test [5] it was 13800 nM; in test [6] (setting [8]), 7840 nM.

Turning to `O=C1Nc2ccccc2C(c2ccccc2)=N[C@@H]1Cc1ccccc1`, in test [1], the MIC was 50 µM (≈ 16.3 µg/mL). This lies in the double-digit micromolar range. `CC(C)[C@H]1N=C(c2ccccc2)c2ccccc2NC1=O`: in test [1], inhibition of growth (MIC) required 200 µM (≈ 55.7 µg/mL). This MIC lies about 4-fold higher than the previous one.

`CC(C)[C@@H]1N=C(c2ccccc2)c2ccccc2NC1=O` showed a minimum inhibitory concentration (MIC) in test [1] of 100 µM (≈ 27.8 µg/mL). On to `CC(C)C1=NCC(=O)Nc2ccccc21`, for which the MIC in test [1] is above 400 µM. With `CC(C)C1=N[C@@H](Cc2ccccc2)C(=O)Nc2ccccc21`, inhibition of growth in test [1] (MIC) required 50 µM (≈ 14.6 µg/mL). This counts as double-digit micromolar. Regarding `CC(C)[C@@H]1N=C(C2CCCCC2)c2ccccc2NC1=O`, the MIC in test [1] was found to be 25 µM (≈ 7.11 µg/mL). In test [1], `CC(C)[C@@H]1N=C(C2CCCCC2)c2cc([N+](=O)[O-])ccc2NC1=O` returned an MIC of 12.5 µM (≈ 4.12 µg/mL). Against the preceding molecule, the MIC is about 2-fold lower. In test [1], `O=C1Nc2ccccc2C(C2CCCCC2)=N[C@H]1Cc1ccccc1` displayed an MIC of 12.5 µM (≈ 4.16 µg/mL). Still for that read-out and setting: the result for `O=C1Nc2ccccc2C(c2ccccn2)=N[C@H]1Cc1ccccc1` reads 100 µM (≈ 32.7 µg/mL); that for `CC(C)[C@@H]1N=C(c2ccccc2)c2ccccc2N(C)C1=O`, 100 µM (≈ 29.2 µg/mL). Molecule `CC(C)[C@@H]1N=C(c2ccccc2)c2ccccc2N(Cc2ccccc2)C1=O` registered an MIC in test [1] of 200 µM (≈ 73.7 µg/mL).

`CC(C)[C@@H]1N=C(c2ccccc2)c2ccccc2N(Cc2ccccc2-c2ccccc2)C1=O` returned a minimal inhibitory concentration (MIC) in test [1] of 12.5 µM (≈ 5.56 µg/mL). As to `CC(C)[C@@H]1N=C(c2ccccc2)c2ccccc2N(Cc2cccc3cccnc23)C1=O`, in test [1], the MIC was determined as 25 µM (≈ 10.5 µg/mL).

With `CC(C)[C@H]1N=C(c2ccccc2)c2ccccc2N(C)C1=O`, in test [1], the MIC was 200 µM (≈ 58.5 µg/mL). Consider `CC(C)[C@H]1N=C(c2ccccc2)c2ccccc2N(Cc2ccccc2)C1=O`, for which, in test [1], the lowest concentration to inhibit growth (MIC) was 12.5 µM (≈ 4.61 µg/mL). This MIC lies about 16-fold lower than the previous one. Same read-out and setting: the result for `CN1C(=O)[C@H](Cc2ccccc2)N=C(c2ccccc2)c2ccccc21` reads 50 µM (≈ 17 µg/mL). In the case of `O=C1[C@H](Cc2ccccc2)N=C(c2ccccc2)c2ccccc2N1Cc1ccccc1`, in test [1], 6.25 µM (≈ 2.6 µg/mL) was the least that counted as inhibitory (MIC). Take `O=C1[C@H](Cc2ccccc2)N=C(c2ccccc2)c2ccccc2N1Cc1ccc(-c2ccccc2)cc1`: inhibition of growth in test [1] (MIC) required 6.25 µM (≈ 3.08 µg/mL). In other words, the single-digit micromolar range. In test [1], `O=C1[C@H](Cc2ccccc2)N=C(c2ccccc2)c2ccccc2N1Cc1cccc(-c2ccccc2)c1` showed an MIC of 25 µM (≈ 12.3 µg/mL). Consider `O=C1[C@H](Cc2ccccc2)N=C(c2ccccc2)c2ccccc2N1Cc1ccccc1-c1ccccc1`, for which, in test [1], the lowest concentration to inhibit growth (MIC) was 6.25 µM (≈ 3.08 µg/mL).

Consider `O=C1[C@H](Cc2ccccc2)N=C(c2ccccc2)c2ccccc2N1Cc1cccc2cccnc12`, for which the MIC in test [1] amounted to 25 µM (≈ 11.7 µg/mL).

For the molecule `N#CCN1C(=O)[C@H](Cc2ccccc2)N=C(c2ccccc2)c2ccccc21`, inhibition of growth in test [1] (MIC) required 3.1 µM (≈ 1.13 µg/mL). Against the preceding molecule, the MIC is about 8.1-fold lower. The same measure, in the same setting: in the case of `O=C(O)CN1C(=O)[C@H](Cc2ccccc2)N=C(c2ccccc2)c2ccccc21` it was 50 µM (≈ 19.2 µg/mL); in that of `CN1C(=O)[C@@H](Cc2ccccc2)N=C(c2ccccc2)c2ccccc21`, 400 µM (≈ 136 µg/mL). Molecule `O=C1[C@@H](Cc2ccccc2)N=C(c2ccccc2)c2ccccc2N1Cc1ccccc1` showed an MIC in test [1] of 12.5 µM (≈ 5.21 µg/mL). Against the preceding molecule, the MIC is about 32-fold lower. Still for that read-out and setting: in the case of `O=C1[C@H](COCc2ccccc2)N=C(c2ccccc2)c2ccccc2N1Cc1ccc(-c2ccccc2)cc1` it was 25 µM (≈ 13.1 µg/mL). On to `O=C1[C@H](COCc2ccccc2)N=C(c2ccccc2)c2ccccc2N1Cc1cccc(-c2ccccc2)c1`, for which 25 µM (≈ 13.1 µg/mL) was the least that counted as inhibitory in test [1] (MIC).

As for `O=C1[C@H](COCc2ccccc2)N=C(c2ccccc2)c2ccccc2N1Cc1cccc2cccnc12`, the MIC in test [1] was found to be 12.5 µM (≈ 6.22 µg/mL). Compared with the last molecule, the MIC is about 2-fold lower. Same read-out and setting: in the case of `CC(C)C1=NCC(=O)N(C)c2ccccc21` it was 400 µM (≈ 86.5 µg/mL). `CC(C)C1=N[C@@H](Cc2ccccc2)C(=O)N(C)c2ccccc21` gave an MIC in test [1] of 25 µM (≈ 7.66 µg/mL).

In turn, `O=C1[C@H](Cc2ccccc2)N=C(C2CCCCC2)c2ccccc2N1Cc1ccccc1` had an MIC in test [1] of 6.25 µM (≈ 2.64 µg/mL). Compared with the last molecule, the MIC is about 4-fold lower. `Nc1ccc(CN2C(=O)[C@H](Cc3ccccc3)N=C(c3ccccc3)c3ccccc32)cc1` had an MIC in test [1] of 12.5 µM (≈ 5.39 µg/mL). In test [1], `Nc1cccc(CN2C(=O)[C@H](Cc3ccccc3)N=C(c3ccccc3)c3ccccc32)c1` gave an MIC of 6.25 µM (≈ 2.7 µg/mL). Compared with the last molecule, the MIC is about 2-fold lower. Still for that read-out and setting: the result for `Nc1ccccc1CN1C(=O)[C@H](Cc2ccccc2)N=C(c2ccccc2)c2ccccc21` reads 6.25 µM (≈ 2.7 µg/mL); that for `CC(C)[C@@H]1N=C(C2CCCCC2)c2ccccc2N(Cc2ccc(N)cc2)C1=O`, 6.25 µM (≈ 2.43 µg/mL); that for `CC(C)[C@@H]1N=C(C2CCCCC2)c2cc(N)ccc2N(Cc2ccc(N)cc2)C1=O`, 6.25 µM (≈ 2.53 µg/mL). In turn, `Nc1ccc(CN2C(=O)[C@H](Cc3ccccc3)N=C(C3CCCCC3)c3ccccc32)cc1` returned an MIC in test [1] of 6.25 µM (≈ 2.73 µg/mL). On to `Nc1cccc(CN2C(=O)[C@H](Cc3ccccc3)N=C(C3CCCCC3)c3ccccc32)c1`, for which the MIC in test [1] amounted to 6.25 µM (≈ 2.73 µg/mL). On the same count and under the same terms, in the case of `Nc1ccc(CN2C(=O)[C@H](Cc3ccccc3)N=C(c3ccccn3)c3ccccc32)cc1` it was 25 µM (≈ 10.8 µg/mL); in that of `CC(C)[C@@H]1N=C(C2CCCCC2)c2cc(N)ccc2NC1=O`, 100 µM (≈ 29.9 µg/mL).

Consider `N=C(N)Nc1ccc(CN2C(=O)[C@H](Cc3ccccc3)N=C(c3ccccc3)c3ccccc32)cc1`, for which the “Ratio IC50” value in test [2] was determined as 1.29; in test [3] it was 2.68. Moreover, it took 0.78 µM (≈ 0.369 µg/mL) to inhibit growth in test [1] (MIC). Also, the IC50 in test [4] (setting [7]) is 1310 nM; in test [5] it was 490 nM; in test [6] (setting [8]), 640 nM. As for `N=C(N)Nc1cccc(CN2C(=O)[C@H](Cc3ccccc3)N=C(c3ccccc3)c3ccccc32)c1`, the “Ratio IC50” value in test [2] amounted to 1.45; in test [3], 3.52. In test [1], this molecule registered an MIC of 0.78 µM (≈ 0.369 µg/mL). For the same molecule, the IC50 in test [4] (setting [7]) is 940 nM; in test [5] it was 270 nM; in test [6] (setting [8]), 390 nM.

`N=C(N)Nc1ccccc1CN1C(=O)[C@H](Cc2ccccc2)N=C(c2ccccc2)c2ccccc21`: the MIC in test [1] came to 1.56 µM (≈ 0.739 µg/mL).

In test [1], `CC(C)[C@@H]1N=C(C2CCCCC2)c2ccccc2N(Cc2ccc(NC(=N)N)cc2)C1=O` registered an MIC of 6.25 µM (≈ 2.7 µg/mL). Still for that read-out and setting: the result for `N=C(N)Nc1ccc(CN2C(=O)[C@H](Cc3ccccc3)N=C(C3CCCCC3)c3ccccc32)cc1` reads 0.78 µM (≈ 0.374 µg/mL). `N=C(N)Nc1cccc(CN2C(=O)[C@H](Cc3ccccc3)N=C(C3CCCCC3)c3ccccc32)c1`: the figures for the “Ratio IC50” value in test [2] and in test [3] were 1.53 and 2.8, respectively. In test [1], this molecule yielded an MIC of 1.56 µM (≈ 0.748 µg/mL). Also, the IC50 stood at 930 nM in test [4] (setting [7]), 330 nM in test [5] and 510 nM in test [6] (setting [8]). In turn, `N=C(N)Nc1ccc(CN2C(=O)[C@H](Cc3ccccc3)N=C(c3ccccn3)c3ccccc32)cc1` showed an MIC in test [1] of 3.13 µM (≈ 1.49 µg/mL).

In turn, `CC(C)[C@@H]1N=C(C2CCCCC2)c2cc(NC(=N)N)ccc2NC1=O` displayed an MIC in test [1] of 1.56 µM (≈ 0.533 µg/mL). The same measure, in the same setting: the result for `N=C(N)NCCC[C@@H]1N=C(c2ccccc2)c2ccccc2NC1=O` reads 400 µM (≈ 134 µg/mL). `O=C(CN1C(=O)[C@H](Cc2ccccc2)N=C(c2ccccc2)c2ccccc21)N1CCN(c2ncccn2)CC1`: in test [1], the MIC was 12.5 µM (≈ 6.63 µg/mL).

`O=C(CN1C(=O)[C@H](Cc2ccccc2)N=C(c2ccccc2)c2ccccc21)N1CCN(c2ccccn2)CC1` showed an MIC in test [1] of 6.25 µM (≈ 3.31 µg/mL). Still for that read-out and setting: the result for `O=C(CN1C(=O)[C@H](Cc2ccccc2)N=C(c2ccccc2)c2ccccc21)N1CCNCC1` reads 12.5 µM (≈ 5.66 µg/mL).

`Nc1nc(N)nc(Nc2ccc([As]3SCC(CO)S3)cc2)n1` (stereo not given) [MELARSOPROL]: the half-maximal inhibitory concentration (IC50) result in test [4] and in test [6] was “Not Active” in each case.

As for `N=C(N)c1ccc(OCCCCCOc2ccc(C(=N)N)cc2)cc1` [PENTAMIDINE], the IC50 entry in test [4] and in test [6] was “Not Active” in each case. With `O=C1CN=C(c2ccccc2)c2ccccc2N1` [RO-052921], the MIC in test [1] came out at 400 µM (≈ 94.5 µg/mL).

`Cc1ccc(C(=O)Nc2ccc(S(=O)(=O)O)c3cc(S(=O)(=O)O)cc(S(=O)(=O)O)c23)cc1NC(=O)c1cccc(NC(=O)Nc2cccc(C(=O)Nc3cc(C(=O)Nc4ccc(S(=O)(=O)O)c5cc(S(=O)(=O)O)cc(S(=O)(=O)O)c45)ccc3C)c2)c1` [SURAMIN HEXASODIUM]: in test [1], 0.13 µM was the least that counted as inhibitory (MIC).

Source of the values: ChEMBL document CHEMBL1681683, “Synthesis and biological evaluation of 1,4-benzodiazepin-2-ones with antitrypanosomal activity” (Bioorg Med Chem, 2011).
